Laboratory results from patent publication US11214803B2, “Modulators of YAP1 expression” (Ionis Pharmaceuticals, Inc., priority 2019, dated 2022).
Strand notation (5' to 3'): a small letter for the sugar, then the base; units joined by * are phosphorothioate-linked, units joined directly phosphodiester-linked; [ ] holds rarer units or linkages, { } end groups; capitals alone tell only the bases. k = constrained ethyl (cEt); [5mC] = 5-methylcytosine; d = 2'-deoxy (DNA)

Test system: Yap1 mRNA
Assay: Dose-dependent inhibition of human Yap1 in A-431 cells (Example 7, 10,000 cells per well, RTS36584)
Type: cell-based
Settings: free uptake
Method in brief: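 Yap1 mRNA was expressed as percent of untreated control after normalization to total RNA (RIBOGREEN), and IC50 was derived by log/linear linear regression. The read-out used primer-probe set RTS36584 roughly 48 hours after free-uptake dosing of oligonucleotides into A-431 cells (10,000 cells/well).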

[1] = Table 57, 15.6 nM, A-431 cells 10,000 cells per well, 48 hours
[2] = Table 57, 62.5 nM, A-431 cells 10,000 cells per well, 48 hours
[3] = Table 57, 4000.00 nM, A-431 cells 10,000 cells per well, 48 hours
[4] = Table 57, A-431 cells 10,000 cells per well
[5] = Table 58, 15.6 nM, A-431 cells 10,000 cells per well, 48 hours
[6] = Table 58, 62.5 nM, A-431 cells 10,000 cells per well, 48 hours
[7] = Table 58, 4000.00 nM, A-431 cells 10,000 cells per well, 48 hours
[8] = Table 58, A-431 cells 10,000 cells per well
[9] = Table 61, 15.6 nM, A-431 cells 10,000 cells per well, 48 hours
[10] = Table 61, 62.5 nM, A-431 cells 10,000 cells per well, 48 hours
[11] = Table 61, 4000.00 nM, A-431 cells 10,000 cells per well, 48 hours
[12] = Table 61, A-431 cells 10,000 cells per well
[13] = Table 60, 15.6 nM, A-431 cells 10,000 cells per well, 48 hours
[14] = Table 60, 62.5 nM, A-431 cells 10,000 cells per well, 48 hours
[15] = Table 60, 4000.00 nM, A-431 cells 10,000 cells per well, 48 hours
[16] = Table 60, A-431 cells 10,000 cells per well
[17] = Table 59, 15.6 nM, A-431 cells 10,000 cells per well, 48 hours
[18] = Table 59, 62.5 nM, A-431 cells 10,000 cells per well, 48 hours
[19] = Table 59, 4000.00 nM, A-431 cells 10,000 cells per well, 48 hours
[20] = Table 59, A-431 cells 10,000 cells per well
[21] = 15.6 nM, A-431 cells, 10,000 cells per well, approximately 48 hours
[22] = 62.5 nM, A-431 cells, 10,000 cells per well, approximately 48 hours
[23] = 4000.00 nM, A-431 cells, 10,000 cells per well, approximately 48 hours
[24] = A-431 cells, approximately 48 hours, linear regression on log/linear plot

## 958546 (k[5mC]*kA*kT*dA*d[5mC]*dT*d[5mC]*dT*dA*dG*dT*dT*dA*k[5mC]*kA*kT; antisense) [compound 958546]
[1]
  Yap1 mRNA, % UTC: 91 % UTC
[2]
  Yap1 mRNA, % UTC: 72 % UTC
[3]
  Yap1 mRNA, % UTC: 22 % UTC
[4]
  IC50: 200 nM

## 958807 (kT*k[5mC]*kA*dT*dT*dG*dT*dA*dG*dT*d[5mC]*dT*dG*kT*k[5mC]*kT; antisense) [compound 958807]
[5]
  Yap1 mRNA, % UTC: 92 % UTC
[6]
  Yap1 mRNA, % UTC: 65 % UTC
[7]
  Yap1 mRNA, % UTC: 10 % UTC
[8]
  IC50: 100 nM

## 958477 (kA*kT*kT*dT*d[5mC]*d[5mC]*dG*dG*dT*dG*d[5mC]*dA*dT*kG*kT*kG; antisense) [compound 958477]
[5]
  Yap1 mRNA, % UTC: 83 % UTC
[6]
  Yap1 mRNA, % UTC: 37 % UTC
[7]
  Yap1 mRNA, % UTC: 6 % UTC
[8]
  IC50: 100 nM

## 958484 (kG*k[5mC]*kA*dG*d[5mC]*dA*dA*dT*dG*dG*dA*d[5mC]*dA*kA*kG*kG; antisense) [compound 958484]
[9]
  Yap1 mRNA, % UTC: 77 % UTC
[10]
  Yap1 mRNA, % UTC: 38 % UTC
[11]
  Yap1 mRNA, % UTC: 4 % UTC
[12]
  IC50: 50 nM

## 958529 (k[5mC]*kA*kA*dG*dT*d[5mC]*dT*dT*dG*dT*dA*dA*dG*kT*kA*kA; antisense) [compound 958529]
[9]
  Yap1 mRNA, % UTC: 103 % UTC
[10]
  Yap1 mRNA, % UTC: 64 % UTC
[11]
  Yap1 mRNA, % UTC: 11 % UTC
[12]
  IC50: 100 nM

## 958588 (kG*kT*kG*dT*dA*d[5mC]*dT*dT*dA*dG*dG*dT*dG*kA*k[5mC]*kT; antisense) [compound 958588]
[13]
  Yap1 mRNA, % UTC: 93 % UTC
[14]
  Yap1 mRNA, % UTC: 73 % UTC
[15]
  Yap1 mRNA, % UTC: 27 % UTC
[16]
  IC50: 200 nM

## 958563 (kA*kG*k[5mC]*dT*dT*dT*dT*dG*d[5mC]*d[5mC]*dA*dG*dG*kA*kG*kA; antisense) [compound 958563]
[17]
  Yap1 mRNA, % UTC: 94 % UTC
[18]
  Yap1 mRNA, % UTC: 54 % UTC
[19]
  Yap1 mRNA, % UTC: 10 % UTC
[20]
  IC50: 100 nM

## 958795 (kT*kA*kT*dT*d[5mC]*d[5mC]*dG*d[5mC]*dA*dT*dT*dG*d[5mC]*k[5mC]*kT*kA; antisense) [compound 958795]
[21]
  Yap1 mRNA, % UTC: 90 % UTC
[22]
  Yap1 mRNA, % UTC: 69 % UTC
[23]
  Yap1 mRNA, % UTC: 20 % UTC
[24]
  IC50: 200 nM

## 958623 (kT*kT*kG*dA*dT*dA*dT*dT*d[5mC]*d[5mC]*dG*d[5mC]*dA*kT*kT*kG; antisense) [compound 958623]
[17]
  Yap1 mRNA, % UTC: 100 % UTC
[18]
  Yap1 mRNA, % UTC: 62 % UTC
[19]
  Yap1 mRNA, % UTC: 10 % UTC
[20]
  IC50: 100 nM

## 958730 (k[5mC]*kT*k[5mC]*dT*dG*dT*d[5mC]*dA*dG*dT*dT*dA*dT*k[5mC]*k[5mC]*kT; antisense) [compound 958730]
[21]
  Yap1 mRNA, % UTC: 88 % UTC
[22]
  Yap1 mRNA, % UTC: 48 % UTC
[23]
  Yap1 mRNA, % UTC: 7 % UTC
[24]
  IC50: 100 nM

## 958650 (kT*k[5mC]*kA*dA*dT*dT*dG*dA*dG*dT*d[5mC]*dT*dG*k[5mC]*kT*kA; antisense) [compound 958650]
[21]
  Yap1 mRNA, % UTC: 82 % UTC
[22]
  Yap1 mRNA, % UTC: 51 % UTC
[23]
  Yap1 mRNA, % UTC: 7 % UTC
[24]
  IC50: 100 nM

## 958531 (kG*kT*kA*dG*dG*dA*dG*d[5mC]*dA*dA*dG*dT*d[5mC]*kT*kT*kG; antisense) [compound 958531]
[1]
  Yap1 mRNA, % UTC: 92 % UTC
[2]
  Yap1 mRNA, % UTC: 63 % UTC
[3]
  Yap1 mRNA, % UTC: 13 % UTC
[4]
  IC50: 100 nM

## 958718 (kG*kA*kA*d[5mC]*dA*d[5mC]*dT*dA*dT*dA*dG*d[5mC]*dT*kT*kG*kG; antisense) [compound 958718]
[13]
  Yap1 mRNA, % UTC: 104 % UTC
[14]
  Yap1 mRNA, % UTC: 80 % UTC
[15]
  Yap1 mRNA, % UTC: 24 % UTC
[16]
  IC50: 200 nM

## 958476 (kT*kT*k[5mC]*d[5mC]*dG*dG*dT*dG*d[5mC]*dA*dT*dG*dT*kG*kT*k[5mC]; antisense) [compound 958476]
Table 56, 15.6 nM, A-431 cells 10,000 cells per well, 48 hours
  Yap1 mRNA, % UTC: 71 % UTC
Table 56, 62.5 nM, A-431 cells 10,000 cells per well, 48 hours
  Yap1 mRNA, % UTC: 30 % UTC
Table 56, 4000.00 nM, A-431 cells 10,000 cells per well, 48 hours
  Yap1 mRNA, % UTC: 6 % UTC
Table 56, A-431 cells 10,000 cells per well
  IC50: 30 nM

## 958507 (kG*kA*kG*d[5mC]*dA*dG*dA*dT*dA*dA*dT*d[5mC]*dG*kA*kG*kA; antisense) [compound 958507]
[17]
  Yap1 mRNA, % UTC: 93 % UTC
[18]
  Yap1 mRNA, % UTC: 69 % UTC
[19]
  Yap1 mRNA, % UTC: 19 % UTC
[20]
  IC50: 200 nM
